Source: US4215043A, “Bicyclomycin derivatives” (Fujisawa Pharmaceutical Co., Ltd., priority 1975, dated 1980)

Test system: Escherichia coli strain 1075
Assay: Protecting effect in experimental mice infections (E. coli strain 1075)
Type: in vivo
Settings: sc, 120 h, female albino mice 8 g-24 g, infected intraperitoneally with E. coli strain 1075, treated subcutaneously, survival on 5th day after infection, highest dosage tested usually 300 mg/kg
Procedure: Protecting Effect in Experimental Mice Infections:
For a reference's sake, with regard to antimicrobial activity of the typical compound which falls within the category of the compounds of the formula (I) of the present invention, there are illustrated in vivo tests in which active ingredient are the following compounds.
The test compound against in vivo against the species Escherichia coli was tested using female albino mice weighing 8 g-24 g.
The mice were infected by intraperitoneal route with standardized suitable diluted bacterial suspensions of E. coli strain 1075 and then treated subcutaneously with the test compound.
The ED50 (mg/kg) was determined from the numbers of mice surviving on the 5th day after infection. The highest dosage tested was usually 300 mg/kg.

SMILES | ED50 [mg/kg]
C=C1CCOC2(C(O)C3(C)COC(C)(C)O3)NC(=O)C1(O)NC2=O (centres unmarked) [Compound 1, 2',3'-O,O-isopropylidenebicyclomycin] | 65
CC(O)(CO)C(O)C12NC(=O)C(O)(NC1=O)C(Br)(CBr)CCO2 (centres unmarked) [Compound 2, 5,11-dibromo-5,11-dihydrobicyclomycin] | 60
